# From PMC9014412 (Journal of medicinal chemistry, 2022)
# Where two headings read alike, the source gives them in different places.
# How the values were obtained:
# HCT116 cells [1] = experiment: Apoptosis flow cytometry assay (sub-G1 population); assay type: cell-based, human; conditions: 10 μM
# Procedure: HCT116 cells were seeded (5 × 10^5 cells/plate) into 6 cm tissue culture plates for 24 h and then treated with 10 μM compounds (with 0.1% DMSO vehicle) or 0.1% DMSO control in fresh medium (5 mL total). The cells were then exposed to the compounds (10 μM) for 24 or 48 h. To harvest the cells, the medium was transferred from each sample plate to 15 mL centrifuge tubes. Each well was washed with 1 mL of phosphate-buffered saline (PBS) and the PBS was transferred to the corresponding 15 mL centrifuge tube. The plates were trypsinized, 2 mL of medium was added, and the cells and medium were transferred to the corresponding 15 mL centrifuge tubes. The harvested cells were pelleted by centrifugation (200g, 5 min, 4 °C), washed with 1 mL PBS, and then pelleted again by centrifugation (200g, 5 min, 4 °C). The supernatant was discarded, and the pellets resuspended in 1 mL of 70% ethanol (ice-cold) to fix the cells. Samples were stored at 4 °C and analyzed within two weeks. PBS (1 mL) was added to each sample tube containing cells fixed in 70% ethanol. The cells were pelleted by centrifugation (200g, 5 min, 4 °C), and the PBS wash was repeated. The supernatant was discarded, and the pellet was resuspended in 50 μL of RNase A (1 μg/mL, Thermo Scientific, EN0531) and left at room temperature for 10 min to digest contaminating RNA. A total of 500 μL of PI stain (50 μg/mL, Invitrogen, P3566) was added to each tube, and the tubes were incubated in the dark, at room temperature, for 30 min. Results were acquired on a BD FACSCanto II flow cytometer and analyzed using BD FACSdiva software. Sub-G1 population was calculated as a percentage of total cell population. Two independent biological replicates were performed.
# LSD1 = LSD1 protein levels by western blotting; assay type: cell-based, human; conditions: HCT116 cells, after 48 h
# Procedure: (§1) Supporting Information: Biology
# (§2) Representative blots of two independent biological replicates.
# (§3) Figure S6. Representative Western blot of HDAC1/2/3 levels after 24 hours and 48 hours with 1
# (§4) (JPS004), 7 (JPS014) and 9 (JPS016), and bar graph representation of HDAC1-3, LSD1 and Sin3a
# (§5) protein levels after 24 hours and 48 hours as the average of three independent biological replicates.
# (§6) (also on this page, place not known: HDAC1 24hHDAC2 24hHDAC3 24hHDAC1 48hHDAC2 48hHDAC3 %Protein Levels Remaining (Relative to DMSO) %Protein Levels Remaining (Relative to DMSO))
# HDAC2 = HDAC2 (Homo sapiens, UniProt Q92769); experiment: HDAC2 degradation by quantitative western blotting in HCT116 cells; set-up: Dmax: dose or concentration left out as unconfirmed; conditions: for HDAC2 degradation in initial screen (in words): HCT116 cells, 24 h, 0.1, 1 and 10 μM, compared with 1 at 10 μM
# Procedure: (§11) Initially, each PROTAC was tested at 0.1, 1, and 10 μM in HCT116 cells for 24 h; then, cell extracts were prepared and evaluated for HDAC1/2 and 3 degradation by quantitative western blotting.
# (§12) This cell line was incubated at 37 °C with 5% CO2.
# (§13) HCT116 cells were seeded into 6-well plates (4 × 10^5 cells/well for 24 h, 2 × 10^5 cells/well for 48 h) for 24 h and then treated with DMSO or compounds at the indicated concentrations in fresh medium (5 mL total). After desired treatment time, the cells were harvested and then lysed in lysis buffer (50 mM Tris-HCl, 150 mM NaCl, 0.5% NP-40, 0.5% Triton X-100) supplemented with a protease inhibitor (Sigma, P8340). The suspension was incubated on ice for 30 min and centrifuged (18,000 rcf, 15 min, 4 °C); then, the supernatant was collected, and protein concentrations were quantified via Bradford Assay using Protein Assay Dye Reagent Concentrate (BIO-RAD). […] PageRuler Plus Prestained Ladder was used for size standards. After gel electrophoresis at 140 V for 90 min, the separated proteins were transferred onto a nitrocellulose membrane at 30 V for 60 min. The membranes were probed with primary antibodies (see the Supporting Information) for 60−90 min. Blots were developed with complimentary IRDye-conjugated secondary antibodies, and the bands were visualized using an Odyssey infrared imaging system. Image processing and band intensity quantification were performed using Image Studio Lite.
# HCT116 cells [2] = experiment: RNA-seq differential gene expression; assay type: cell-based, human; conditions: 10 μM, 24 h
# Procedure: RNA-seq analysis was performed in HCT116 cells treated with PROTACs (JPS004, JPS014, JPS016, JPS035, and JPS036) for 24 h at 10 μM concentration. Total RNA was isolated using a Tri-reagent RNA miniprep kit (Zymogen; R2053), before RNA integrity, size, and purity were assessed using an Agilent Bioanalyzer. Library preparation and sequencing were performed by Novogene, using a NovaSeq 6000 PE150 platform at a read depth of 20 million. For bioinformatics analysis, see the Supporting Information. RNA-seq data from the study was deposited at the GEO database (GSE197985).
# 3. Apoptosis Flow Cytometry Assay
# Figure S9. Apoptosis flow cytometry assay with 2.5 µM and 10 µM treatments of JPS016 and JPS016NC at 24 and 48 hours. Error bars represent the average of three independent biological replicates.
# µM µM µM 5 µM µM µM µM µM µM µM
# 4. RNA Seq – Bioinformatics Analysis
# Paired-end reads were aligned using HISAT2 (v2.2.1) and mapped to the HISAT2 GRCh38_tran index build.3 Quality control was performed on raw and aligned data using FASTQC (v0.11.9) and summarised using MultiQC (v1.11).4,5 The resulting SAM files were subsequently sorted and converted to the BAM format before indexing with SAMtools (v 1.12).6 Reads were then counted across the exons of each gene and gene loci annotated using command-line program LiBiNorm (v2.4); run in HT-Seq compatibility mode (-z) and provided with the ‘Homosapiens.GRCh38.104’ GTF file obtained from Ensembl. LiBiNorm was run using the following parameters: LiBiNorm count -z -r pos -i gene_name -s reverse <BAM file> Homo_sapiens.GRCh38.104.gtf <OUTPUT file>.7 Default normalisation of expression values and differential gene analysis was then carried out using the R package DESeq2.8 Significance thresholds were set as a p-adjusted value < 0.01 and a fold change > 2 (log2 fold change > 1) and implemented for down-stream analysis, with all plots produced in R. Gene ontology (GO) analysis was carried out using the Bioconductor package topGO using the human genome-wide annotation package to map gene identifiers to the relevant org.Hs.eg.db […]
# HCT116 cells [3] = experiment: CellTiter-Glo 2.0 cell viability assay; assay type: cell-based, human
# Procedure: CellTiter-Glo 2.0 Reagent (Promega UK Ltd, G9242) was equilibrated to room temperature and added to the wells in a ratio of 1 volume reagent:5 volumes medium. Background luminescence was determined using medium alone plus reagent. The plates were shaken on an orbital shaker for 2 min to induce cell lysis and then incubated in the dark at room temperature for 10 min to stabilize the luminescent signal. Luminescence was captured on a CLARIOstar plate reader (BMG Labtech Ltd, UK) at 22 °C to give relative luminescence units and analyzed using BMG Labtech software. EC50 values were calculated by nonlinear regression (Hill plot) and log (inhibitor) versus response—variable slopes (four parameters) using GraphPad Prism 9 software. Each compound dose response was repeated as four independent biological replicates (n = 4).
# H3K56ac = experiment: Histone H3 Lys 56 acetylation (H3K56ac) western blotting; assay type: cell-based, human; conditions: HCT116 cells, 24 h, screen at 0.1, 1, 10 μM; relative to DMSO, CI-994 and 1 at 10 μM
# Source text: as §1, §2
# SIN3A = SIN3A protein levels by western blotting; assay type: cell-based, human; conditions: HCT116 cells, 10 μM, after 24 h
# Procedure: as §1, §2, §3, §4, §5, §6
# [4] = target: T1, HDAC2-CoREST-LSD1 complex (Homo sapiens, UniProt Q92769); experiment: Fluorescent HDAC assay with purified HDAC2-CoREST-LSD1 complex; assay type: biochemical; conditions: Boc-(Ac)Lys-AMC substrate
# T1 construct: made in house
# Procedure: (§7) 2. In Vitro HDAC Assay with Class I HDAC Complexes
# (§8) Histone Deacetylase Assay. Inhibition experiments against HDAC1-CoREST-LSD1, HDAC2-CoREST-LSD1 and HDAC3-SMRT-DAD were conducted using a fluorescent HDAC assay. The assays were carried out utilising a black 96-well plates (Corning) with a reaction volume of 50 µL. HDAC complexes were expressed and purified as described previously.1,2 100 µM of Boc- (Ac)Lys-AMC was used as a substrate in each well. All determinations were performed in triplicate. The inhibitors/PROTACs were dissolved at 50 mM in DMSO, and then further diluted with 10% DMSO HDAC assay buffer (10% DMSO, 50 mM Tris pH 7.5, 50 mM NaCl, 0.1 mg/mL BSA) to micromolar concentrations. 1:3 serial dilutions were then carried out using 10% DMSO HDAC assay buffer to afford range of concentrations. 10 µL of each of these solutions were […]
# (§9) assay buffer (50 mM Tris pH 7.5, 50 mM NaCl, 0.1 mg/mL BSA). The plate was then incubated at 20 °C, 100 RPM for 1 hour. After incubation, 10 µL of the Boc-(Ac)Lys-AMC substrate, dissolved in HDAC assay buffer, was added to each well. […] Fluorescence intensity was determined […]
# (§10) IC 50 values were calculated through the GraphPad Prism 7 software by non-linear regression, log (inhibitor) vs. response – variable slope […]
# HDAC3-SMRT complex = target: T2, HDAC3-SMRT complex (Homo sapiens, UniProt O15379); experiment: Fluorescent HDAC assay with purified HDAC3-SMRT complex; assay type: biochemical; conditions: Boc-(Ac)Lys-AMC substrate
# T2 construct: made in house
# Procedure: as §7, §8, §9, §10
# HDAC1 = HDAC1 (Homo sapiens, UniProt Q13547); experiment: HDAC1 degradation by quantitative western blotting in HCT116 cells
# Procedure: as §11, §12, §13
# HDAC3 = HDAC3 (Homo sapiens, UniProt O15379); experiment: HDAC3 degradation by quantitative western blotting in HCT116 cells
# Procedure: as §11, §12, §13
# [5] = target: T3, HDAC1-CoREST-LSD1 complex (Homo sapiens, UniProt Q13547); experiment: Fluorescent HDAC assay with purified HDAC1-CoREST-LSD1 complex; assay type: biochemical; conditions: Boc-(Ac)Lys-AMC substrate
# T3 construct: made in house
# Procedure: as §7, §8, §9, §10
# [6] = p-adjusted < 0.01, log2 fold change > 1
# Chain of HDAC2 (Q92769 whole entry): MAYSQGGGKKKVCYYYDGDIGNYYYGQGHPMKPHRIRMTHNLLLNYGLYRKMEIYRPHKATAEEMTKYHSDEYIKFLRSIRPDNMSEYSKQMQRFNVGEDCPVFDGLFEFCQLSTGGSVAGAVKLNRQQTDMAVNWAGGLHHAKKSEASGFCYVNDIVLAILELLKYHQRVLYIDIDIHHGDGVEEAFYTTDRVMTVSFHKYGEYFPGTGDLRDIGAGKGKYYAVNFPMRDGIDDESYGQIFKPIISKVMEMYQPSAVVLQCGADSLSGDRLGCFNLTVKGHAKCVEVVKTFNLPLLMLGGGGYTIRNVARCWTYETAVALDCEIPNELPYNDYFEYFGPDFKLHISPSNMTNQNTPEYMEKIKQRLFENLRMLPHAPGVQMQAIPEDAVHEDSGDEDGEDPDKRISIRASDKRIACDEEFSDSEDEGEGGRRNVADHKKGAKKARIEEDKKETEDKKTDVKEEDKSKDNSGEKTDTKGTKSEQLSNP
# Chain of HDAC1 (Q13547 whole entry): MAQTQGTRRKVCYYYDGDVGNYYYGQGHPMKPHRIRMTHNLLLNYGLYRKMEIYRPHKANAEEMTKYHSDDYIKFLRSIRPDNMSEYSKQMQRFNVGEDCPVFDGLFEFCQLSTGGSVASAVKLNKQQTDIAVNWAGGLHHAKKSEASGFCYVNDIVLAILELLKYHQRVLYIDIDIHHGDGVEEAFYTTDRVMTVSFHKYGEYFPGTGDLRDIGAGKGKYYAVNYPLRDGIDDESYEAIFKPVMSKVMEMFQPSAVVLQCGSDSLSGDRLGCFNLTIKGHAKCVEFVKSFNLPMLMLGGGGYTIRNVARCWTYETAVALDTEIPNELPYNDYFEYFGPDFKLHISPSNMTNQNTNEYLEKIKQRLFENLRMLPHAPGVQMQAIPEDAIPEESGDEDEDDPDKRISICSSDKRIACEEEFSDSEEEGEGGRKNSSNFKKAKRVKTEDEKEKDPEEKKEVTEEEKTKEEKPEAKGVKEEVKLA
# Chain of HDAC3 (O15379 whole entry): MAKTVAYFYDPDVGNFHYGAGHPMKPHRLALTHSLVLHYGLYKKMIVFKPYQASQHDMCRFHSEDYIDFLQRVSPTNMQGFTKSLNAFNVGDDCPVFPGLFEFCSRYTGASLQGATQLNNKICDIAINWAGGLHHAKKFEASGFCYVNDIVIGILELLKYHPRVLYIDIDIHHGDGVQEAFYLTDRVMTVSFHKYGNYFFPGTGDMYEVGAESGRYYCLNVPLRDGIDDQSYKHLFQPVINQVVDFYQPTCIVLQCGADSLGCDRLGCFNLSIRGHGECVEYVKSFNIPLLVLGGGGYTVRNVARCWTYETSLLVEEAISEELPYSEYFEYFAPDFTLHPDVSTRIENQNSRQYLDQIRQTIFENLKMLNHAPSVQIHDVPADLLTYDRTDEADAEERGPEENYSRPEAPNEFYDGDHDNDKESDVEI
# Chain of HDAC3 (Q9Y618 389-480 partner limits assumed): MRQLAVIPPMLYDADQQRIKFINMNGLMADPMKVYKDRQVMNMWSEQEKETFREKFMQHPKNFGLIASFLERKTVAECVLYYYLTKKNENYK
# T1 sequence (Q92769 whole entry, other chains not shown): as the sequence (Q92769 whole entry) above
# T1 sequence (Q9UKL0 86-485 partner limits assumed, other chains not shown): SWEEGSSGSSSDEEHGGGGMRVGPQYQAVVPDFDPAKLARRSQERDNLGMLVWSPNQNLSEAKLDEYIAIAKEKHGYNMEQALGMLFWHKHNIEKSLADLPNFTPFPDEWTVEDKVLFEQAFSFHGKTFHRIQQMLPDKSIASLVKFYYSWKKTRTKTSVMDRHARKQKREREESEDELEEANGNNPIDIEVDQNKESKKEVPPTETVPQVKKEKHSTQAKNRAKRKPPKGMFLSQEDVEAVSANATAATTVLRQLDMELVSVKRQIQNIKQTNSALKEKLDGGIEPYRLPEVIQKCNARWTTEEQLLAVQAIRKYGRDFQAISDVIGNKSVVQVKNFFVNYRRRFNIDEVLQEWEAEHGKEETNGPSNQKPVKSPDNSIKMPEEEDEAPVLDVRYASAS
# T3 sequence (Q13547 whole entry, other chains not shown): as the sequence (Q13547 whole entry) above
# T3 sequence (Q9UKL0 86-485 partner limits assumed, other chains not shown): as the sequence (Q9UKL0 86-485 partner limits assumed, other chains not shown) above
# T2 sequence (O15379 whole entry): as the sequence (O15379 whole entry) above
# T2 sequence (Q9Y618 389-480 partner limits assumed): as the sequence (Q9Y618 389-480 partner limits assumed) above
SMILES,Percentage of cells in sub-G1 phase (in words) (HCT116 cells [1]; after 24 h),Percentage of cells in sub-G1 phase (in words) (HCT116 cells [1]; after 48 h),LSD1 levels (LSD1),HDAC2 degradation in initial screen (in words) (HDAC2),"Dmax (HDAC2; HCT-116, read-out: Dmax HDAC2) [%]","Dmax (HDAC2; HCT-116, read-out: Dmax HDAC2 in time course) [%]",Number of downregulated DEGs (HCT116 cells [2]; [6]),Number of upregulated DEGs (HCT116 cells [2]; [6]),"EC50 (HCT116 cells [3]; Homo sapiens, HCT-116, 48 h, 48 h) [µM]",H3K56ac levels (in words) (H3K56ac),SIN3A levels (abundance) (SIN3A) [% abundance],IC50 [4] [µM],IC50 (HDAC3-SMRT complex) [µM],"HDAC1 degradation in initial screen (in words) (HDAC1; HCT116 cells, 24 h, 0.1, 1 and 10 μM, compared with 1 at 10 μM)","Dmax (HDAC1; HCT-116, read-out: Dmax HDAC1) [%]","HDAC3 dose-response behaviour (hook effect) (HDAC3; HCT116 cells, 24 h, 0.01-10 μM)","Dmax (HDAC3; HCT-116, read-out: Dmax HDAC3) [%]",Fold less DEGs (HCT116 cells [2]; compared with the more potent degraders),Effect on cell viability (in words) (HCT116 cells [3]; CellTiter-Glo and flow cytometry),IC50 [5] [µM]
"Cc1ncsc1-c1ccc(CNC(=O)[C@@H]2C[C@@H](O)CN2C(=O)[C@@H](NC(=O)COCCCCCCCCCOCC(=O)Nc2ccc(C(=O)Nc3ccccc3N)cc2)C(C)(C)C)cc1 [Compound 9, (2S,4R)-1-((S)-2-(2-((9-(2-((4-((2-Aminophenyl)carbamoyl)-phenyl)amino)-2-oxoethoxy)nonyl)oxy)acetamido)-3,3-dimethylbutanoyl)-4-hydroxy-N-(4-(4-methylthiazol-5-yl)benzyl)-pyrrolidine-2-carboxamide]",highest percentage of cells in the sub-G1 phase,highest percentage of cells in the sub-G1 phase,approximately 40 % of controls,marginally increased compared to 1 at 10 μM,45,51,1477,2464,5.2 ± 0.6,increased H3K56ac levels to the same levels as CI-994,60,,,,,,,,,
"CC(=O)N[C@H](C(=O)N1C[C@H](O)C[C@H]1C(=O)NCc1ccc(-c2scnc2C)cc1OCCCCCCCCCCCC(=O)Nc1ccc(C(=O)Nc2ccccc2N)cc1)C(C)(C)C [Compound 21, (2S,4R)-1-((S)-2-Acetamido-3,3-dimethylbutanoyl)-N-(2-((12-((4-((2-aminophenyl)carbamoyl)phenyl)amino)-12-oxododecyl)oxy)-4-(4-methylthiazol-5-yl)benzyl)-4-hydroxypyrrolidine-2-carboxamide]",,,,comparable HDAC1 and HDAC2 degradation to 1,49,,,,,increased H3K56ac levels significantly but not to the same levels as 1,,3.46 ± 0.78,3.81 ± 0.79,comparable HDAC1 and HDAC2 degradation to 1,68,exhibit a standard dose response curve for HDAC3,76,approximately 10 fold,little effects on cell viability,1.81 ± 0.54
